Numbers after ± are expanded uncertainties.
What was measured:
[1] = Liquid; for mass density: 293.15 K, 101.33 kPa, Vibrating tube method; for Normal boiling temperature: Ebulliometric method (Recirculating still)
[2] = refractive index (Na D-line) (dimensionless); conditions: 293.15 K; 101.33 kPa; Liquid; Standard Abbe refractometry

| mass density [1] [kg/m3] | Normal boiling temperature [1] [°C] | refractive index [2] | Compound |
| --- | --- | --- | --- |
| 801.7 ± 1 | 107.00 ± 0.5 | 1.3955 ± 0.0008 | CC(C)CO [2-methyl-1-propanol] |
| 998.4 ± 1 | 100.1 ± 0.5 | 1.3328 ± 0.0008 | O [water] |
| 813.7 ± 1 | 137.80 ± 0.51 | 1.4087 ± 0.0008 | CCCCCO [pentan-1-ol] |
| 790 ± 1 | 78.40 ± 0.5 | 1.3616 ± 0.0008 | CCO [ethanol] |

From the NIST ThermoML archive (doi:10.1016/j.fluid.2013.03.029)
